Assay type in all cases: cell-based
Experiment [1] concerns MCF-7 breast adenocarcinoma cells. Put plainly: Antiproliferative activity, crystal violet assay. Particulars: 96 h exposure, SD in parentheses, n = 3. On the procedure: (§1) The antiproliferative potential of the gold–NHC complexes was determined in A549 lung carcinoma cells, MDA-MB-231 breast cancer cells, MCF-7 breast adenocarcinoma cells, and HT-29 colon carcinoma cells (Table 1). Vero E6 African green monkey kidney cells served as a reference cell line to check for possible tumour selectivity. Auranofin (AF) was used as an established reference drug.[15,17] […]
(§2) S2.2. Cytotoxicity and Anticancer Studies
(§3) Cell culture and cytotoxicity
(§4) Cell lines were sourced from DSMZ (German Collection of Microorganisms and Cell Cultures GmbH) and maintained through standard procedures in Dulbecco's Modified Eagle Medium (DMEM) supplemented with 10% fetal calf serum and 50 mg/L gentamycin. Antiproliferative effects were assessed using a well-established assay protocol. In brief, 100 μL volumes of A549 cells (13,243 cells per mL), HT-29 cells (14,657 cells per mL), MDA-MB-231 cells (6,613 cells per mL), or MCF-7 cells (6,917 cells per mL) were transferred into the wells of 96-well plates and incubated at 37°C/5% CO2 for 72 […]
(§5) Freshly prepared stock solutions of the compounds in DMSO were diluted with the respective cell culture medium to achieve graded concentrations (final concentration of DMSO: 0.1% v/v). After 72 hours (A549, HT-29) or 96 hours (MCF-7, MDA-MB-231) of exposure, the cell biomass was assessed through crystal violet staining, and the IC50 value was determined as the concentration causing 50% inhibition of cell proliferation compared to an untreated control. Results were calculated as the mean values of three independent experiments.

The subject of experiment [2] is HT-29 colon carcinoma cells. Briefly: Antiproliferative activity, crystal violet assay. Particulars: 72 h exposure, SD in parentheses, n = 3. The protocol: as §1, §2, §3, §4, §5
Experiment [3] deals with A549 lung carcinoma cells. Put plainly: Antiproliferative activity, crystal violet assay. As to conditions: 72 h exposure, SD in parentheses, n = 3. The protocol: as §1, §2, §3, §4, §5
Experiment [4] concerns MDA-MB-231 breast cancer cells. Briefly: Antiproliferative activity, crystal violet assay. As to conditions: 96 h exposure, SD in parentheses, n = 3. The protocol:
as §1, §2, §3, §4, §5

Experiment [5] concerns Klebsiella pneumoniae DSM111678. Briefly: Antibacterial activity (MIC, curve fitting). Particulars: Table S12; ± standard error of the mean. The protocol:
(§6) The antibacterial activity of all gold complexes was assessed against six pathogenic bacterial strains, including two Gram-positive species, i.e. Enterococcus faecium and methicillin-resistant Staphylococcus aureus (MRSA), and four Gram-negative species, i.e. Acinetobacter baumannii, Escherichia coli, Klebsiella pneumoniae, and Pseudomonas aeruginosa. Minimum inhibitory concentrations (MICs) were determined using a curve-fitting technique.
(§7) S2.1. Antibacterial Studies
(§8) Bacterial cultures were prepared by overnight aerobic incubation at 37 °C. Gram-negative strains were cultivated in Müller Hinton broth supplemented with 1% glucose at pH 7.2, while Gram-positive strains were grown in Trypticase soy yeast extract medium (TSY) with a composition of 30 g/l trypticase soy broth, 3 g/l yeast extract, and pH 7.2. The cultures were adjusted to an OD600 of 0.001, resulting in a final starting OD600 of 0.0005 for the subsequent tests. For testing, 25 μL of the prepared culture was combined with 25 μL of serially diluted test compounds in 384 well plates, following established protocols for different strains. Screening was performed at compound concentrations of 0.5, 5, and 50 µM, and for selected compounds, growth inhibition curves were recorded using DMSO stock solutions […]
(§9) Positive control compounds, namely linezolid (for MRSA strains), ciprofloxacin (for E. faecium and E. coli), and amikacin (for P. aeruginosa), were included. The maximum DMSO concentration in the assay […]
(§10) After an 18-hour incubation at 37 °C under moist conditions, the optical density at 600 nm was measured using a Fusion Universal Microplate Analyser (Perkin–Elmer, Waltham, USA). The minimum inhibitory concentration (MIC) values, representing the […]
(§11) fitting with Sigma Plot. The bacterial strains used included Gram-negative strains: Escherichia coli (DSM 1116), A. baumannii (DSM30007), K. pneumoniae (DSM111678), and Pseudomonas aeruginosa PA7 (DSM 24068); and Gram-positive strains: E. faecium (DSM20477) and Staphylococcus aureus MRSA

Experiment [6] has as its system Enterococcus faecium DSM20477. Put plainly: Antibacterial activity (MIC, curve fitting). As to conditions: Table S12; ± standard error of the mean. The protocol:
as §6, §7, §8, §9, §10, §11

Experiment [7] concerns Acinetobacter baumannii DSM30007. Put plainly: Antibacterial activity (MIC, curve fitting). Particulars: Table S12; ± standard error of the mean. The protocol: as §6, §7, §8, §9, §10, §11
Experiment [8] has as its system methicillin-resistant Staphylococcus aureus DSM 11822. Put plainly: Antibacterial activity (MIC, curve fitting). As to conditions: Table S12; ± standard error of the mean. On the procedure: as §6, §7, §8, §9, §10, §11
The subject of experiment [9] is Escherichia coli DSM 1116. Put plainly: Antibacterial activity (MIC, curve fitting). As to conditions: Table S12; ± standard error of the mean. On the procedure: as §6, §7, §8, §9, §10, §11
For experiment [10], the system named is Pseudomonas aeruginosa DSM 24068. Briefly: Antibacterial activity (MIC, curve fitting). Particulars: Table S12; ± standard error of the mean. The protocol: as §6, §7, §8, §9, §10, §11

Regarding `Cn1cc(C(=O)O)[n+](C)[c]1[Au-]([Cl])([Cl])[c]1n(C)cc(C(=O)O)[n+]1C.[Cl-]` [5a], the IC50 in experiment [1], in experiment [2], in experiment [3] and in [4] was more than 100 µM in each case. Also, the “MIC, K. pneumoniae” value in experiment [5] is more than 100 µM. The “MIC, E. faecium” value in [6] is more than 100 µM. Besides, the “MIC, A. baumannii” value in experiment [7] was more than 100 µM. In addition, the “MIC, MRSA” value in experiment [8] is more than 100 µM. Further, the “MIC, E. coli” value in experiment [9] was more than 100 µM. In [10], the “MIC, P. aeruginosa” value is more than 100 µM.
Regarding `COC(=O)c1cn(C)[c]([Au-]([Cl])([Cl])[c]2n(C)cc(C(=O)OC)[n+]2C)[n+]1C.O=S(=O)([O-])C(F)(F)F` [5b], the IC50 in [1] turned out to be 20 µM; in experiment [2], 18.6 µM; in experiment [3], 3.35 µM; in [4], 14.8 µM. Moreover, the “MIC, K. pneumoniae” value in experiment [5] was more than 100 µM. Further, the “MIC, E. faecium” value in experiment [6] is more than 100 µM. For the same compound, in experiment [7], the “MIC, A. baumannii” value is more than 100 µM. Also, the “MIC, MRSA” value in experiment [8] was more than 100 µM. Besides, the “MIC, E. coli” value in experiment [9] is more than 100 µM. The “MIC, P. aeruginosa” value in experiment [10] is more than 100 µM.
In the case of `CCOC(=O)c1cn(C)[c]([Au-]([Cl])([Cl])[c]2n(C)cc(C(=O)OCC)[n+]2C)[n+]1C.F[B-](F)(F)F` [5c], the half-inhibitory concentration (IC50) in [1] was determined as 3.91 µM; in [2] it was 4.29 µM; in [3] it was 0.89 µM; in [4], 2.33 µM. Besides, the “MIC, K. pneumoniae” value in [5] is more than 100 µM. Also, the “MIC, E. faecium” value in experiment [6] was more than 100 µM. Besides, in [7], the “MIC, A. baumannii” value is more than 100 µM. Further, in [8], the “MIC, MRSA” value was found to be 23.15 ± 0 µM. Besides, in [9], the “MIC, E. coli” value was more than 100 µM. Moreover, in experiment [10], the “MIC, P. aeruginosa” value is more than 100 µM.

Values taken from publication PMC11342128, “Gold(I) and gold(III) carbene complexes from the marine betaine norzooanemonin: inhibition of thioredoxin reductase, antiproliferative and antimicrobial activity” (RSC Medicinal Chemistry, 2024).
